In the test the target is T1, Angiotensin-converting enzyme from rabbit lung (Oryctolagus cuniculus, UniProt P12822).
T1 construct: purchased Fluka; host or cells: rabbit lung
T1 sequence (P12822 34-1310): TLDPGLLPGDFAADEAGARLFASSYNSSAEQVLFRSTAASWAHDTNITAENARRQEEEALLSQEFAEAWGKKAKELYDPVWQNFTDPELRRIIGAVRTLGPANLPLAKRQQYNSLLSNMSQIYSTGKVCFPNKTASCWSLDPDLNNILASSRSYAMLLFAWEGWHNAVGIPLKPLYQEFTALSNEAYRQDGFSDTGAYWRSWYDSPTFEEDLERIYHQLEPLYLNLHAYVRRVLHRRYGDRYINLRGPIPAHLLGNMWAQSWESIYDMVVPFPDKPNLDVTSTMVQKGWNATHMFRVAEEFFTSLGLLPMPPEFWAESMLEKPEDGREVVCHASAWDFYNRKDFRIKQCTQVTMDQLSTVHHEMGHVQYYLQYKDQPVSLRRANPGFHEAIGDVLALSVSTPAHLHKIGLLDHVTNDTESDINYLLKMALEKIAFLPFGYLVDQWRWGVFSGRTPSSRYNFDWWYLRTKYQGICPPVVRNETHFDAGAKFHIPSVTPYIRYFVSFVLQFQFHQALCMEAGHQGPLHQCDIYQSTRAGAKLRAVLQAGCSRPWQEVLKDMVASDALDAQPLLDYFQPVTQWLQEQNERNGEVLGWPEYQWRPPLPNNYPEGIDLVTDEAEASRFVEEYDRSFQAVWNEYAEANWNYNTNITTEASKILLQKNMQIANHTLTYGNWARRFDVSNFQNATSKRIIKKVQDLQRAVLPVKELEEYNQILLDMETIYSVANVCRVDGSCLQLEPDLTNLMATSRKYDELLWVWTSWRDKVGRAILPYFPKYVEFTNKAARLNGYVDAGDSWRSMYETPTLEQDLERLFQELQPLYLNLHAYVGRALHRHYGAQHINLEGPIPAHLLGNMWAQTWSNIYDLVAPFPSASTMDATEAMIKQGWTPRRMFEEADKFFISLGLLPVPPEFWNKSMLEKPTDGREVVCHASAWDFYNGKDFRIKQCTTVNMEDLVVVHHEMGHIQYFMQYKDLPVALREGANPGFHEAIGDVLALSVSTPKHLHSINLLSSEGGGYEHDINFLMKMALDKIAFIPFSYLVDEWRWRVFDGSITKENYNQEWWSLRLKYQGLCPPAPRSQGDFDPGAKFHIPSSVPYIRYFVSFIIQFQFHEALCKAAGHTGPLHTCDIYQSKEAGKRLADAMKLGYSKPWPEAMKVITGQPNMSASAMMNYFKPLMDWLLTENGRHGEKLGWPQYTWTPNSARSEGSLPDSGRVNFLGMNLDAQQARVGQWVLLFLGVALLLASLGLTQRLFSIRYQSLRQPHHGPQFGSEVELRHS
Briefly: ACE-fluorescence assay for the determination of the IC50 value. The settings on record: substrate Abz-Gly-Phe(NO2)-Pro 20 μM, pH 8.0, 36° C., inhibitor 0 to 100 μM. The format is biochemical. The text has this: ACE-fluorescence assay for the determination of the IC50 value
Literature: Amos Carmel and Arieh Yaron, Eur. J. Biochem. […], 265-273 (1978). An Intramolecularly Quenched Fluorescent Tripeptide as a Fluorogenic Substrate of Angiotensin-I-Converting Enzyme and of Bacterial Dipeptidyl Carboxypeptidase.
Enzyme: Angiotensin-converting enzyme from rabbit lung (EC.3.4.15.1), Fluka (3.3 U/μg)
Substrate: Abz-Gly-Phe(NO2)-Pro, M-1100 Bachem
Assay buffer: 0.05 Tris-HCl
Excitation: 360 nm (excitation slit: 8 nm)
Emission: 410 nm (emission slit: 10 nm)
Substrate stock solution: […] in assay buffer
Enzyme stock solution: […] assay buffer
Inhibitor stock solution: 1 mM in DMSO diluted in assay buffer
Measuring cuvette: 50 μl substrate (yields 20 μM)
0 to 100 μl inhibitor stock solution […]
fill up remainder to 1 ml
Substrate, inhibitor and buffer are added together in a heated measuring cuvette and the enzyme reaction is started by addition of enzyme. The increase in fluorescence over time (200 s) is monitored in a time scan. The respective initial rate is determined from the increase.
The IC50 value can be determined as follows:
V0 =initial rate without inhibitor
[I]=inhibitor concentration

`CC(C)(C)C(C(=O)O)C(=O)NC1(c2ccccc2)C(=O)NC(=O)NC1=O` (stereo not shown) [Example 4, 3. 3-Dimethyl-2-(2,4,6-trioxo-5-phenyl-hexahydro-pyrimidin-5-ylcarbamoyl)-butyric acid]: the IC50 (commonly the concentration that gives 50% inhibition) was determined as 159 µM.

These data come from patent US6242455A, “Pyrimidin-2,4,6-trion derivatives, method for producing the same and medicinal products containing these compounds” (Roche Diagnostics GmbH, priority 1997, dated 2001).
